# Measurements as given in patent US20060024658A1, “Composition and methods for evaluating an organism's response to alcohol or stimulants” (priority 1998, published 2006).
# Like-named read-outs stand apart in the source and are kept apart here.
# Legend:
# [1] = test system: noradrenergic receptors; conditions: in vivo; cited from earlier work
# [2] = test system: SH-SY5Y cells; assay: Effect of dexamethasone and db-cAMP on expression of DBH, NET, DLK and MCP-1; type: cell-based, human; conditions: 1 mM; data not shown
# Source text: Previous studies have shown that neuroblastoma cells derived from the neural crest could differentiate either towards a more neuronal phenotype in the presence of retinoic acid, or a chromaffin-like phenotype in the presence of glucocorticoids or dibutyryl-cyclic AMP (db-cAMP). […] Therefore, we tested the effect of dexamethasone and db-cAMP on the expression of our 4 candidate genes.
# [3] = test system: human neuroblastoma SH-SY5Y cells; assay: Oligonucleotide array (Affymetrix GeneChip Hu6800) gene expression profile after ethanol; conditions: 72 h
# [4] = test system: SH-SY5Y cells; conditions: 150 mM ethanol, 3 days, media from last 24 h, n=3; control 0.957+/−0.49
# Procedure: All HPLC apparatus was from ESA, Inc. (Chelmsford, Mass.). Following precipitation with 0.1 M perchloric acid and centrifugation over a 5000 MW cut-off centrifugal filter, culture media (10 μl aliquot) was injected onto an ESA HR-80 column (C-18, 4.6 mm×8 cm, 3 um particle size) using a Model 540 refrigerated autosampler injector and a Model 580 solvent delivery pump. […] Eluents were detected at a flow rate of 1.0 ml/min using a Model 5011 analytical cell with palladium reference electrode, a Model 5020 guard cell, and a Model 5200A Coulochem II electrochemical detector. Electrode settings were +350 mV for the guard cell, −100 mV for the pre-oxidation electrode, and +280 mV for the detection electrode. Samples were analyzed at 5 nA sensitivity and compared with a two-point monoamine standard calibration curve at 1 and 5 pg/μl using the Model 501 analysis software package.
# [5] = test system: DBH protein in SH-SY5Y cells
# Procedure: (§1) The relative amount of DBH protein between whole cell homogenates of control and ethanol-treated cells was determined by Western blot analysis following standard protocols using a polyclonal antibody (Calbiochem). MCP-1 production was monitored in the culture media of cells treated in the absence or presence of ethanol using the Quantikine MCP-1 immunoassay from R&D System.
# [6] = test system: MCP-1 release from SH-SY5Y cells; conditions: ethanol-treated cells; FIG. 4C
# Procedure: as §1
# [7] = test system: DBH mRNA in adrenal glands and brain; conditions: versus saline
# Procedure: Animal studies were conducted on female DBA/2 mice (Simonsen Laboratories, Gilroy, Calif.) weighing 20-30 g at 8 weeks of age. All animals were housed individually under a 12:12 light-dark cycle at 22° C. and given ad libitum access to food and water before and after injection procedures. […] Adrenal glands were dissected out, immediately frozen into liquid nitrogen and stored at −80° C. until needed.
# Aliquot of ss cDNA were then used in comparative PCR. […] We performed duplex reaction using GAPDH as an endogenous amplification standard. PCR conditions were optimized so that the amplification of both, GAPDH and DBH cDNAs were in the exponential phase.
# [8] = test system: SH-SY5Y cells
# Source text: RNA blots were probed with ^32P-labeled inserts of human DBH, NET, DLK and MCP-1 cDNAs. Probes were synthesized by RT-PCR using SH-SY5Y total RNA as template. […] Human GAPDH cDNA probe (Clonetech) was used as an internal control for total RNA normalization.
# [9] = test system: SHSY-5Y cells; assay: Effects of alcohols on gene expression (array hybridization intensity) in SHSY-5Y cells, Study 1; type: cell-based, human; conditions: for Co-Activ increase in hybridization / MAP4 increase in hybridization / Na/H Anti increase in hybridization / ZNFP increase in hybridization: 50 mM alcohol, early (2 hour) response, FIG. 2B; for DBH hybridization intensity over baseline / DLK hybridization intensity over baseline / GABA-β3 hybridization intensity over baseline / NPTX2 hybridization intensity over baseline / PDGFR hybridization intensity over baseline / PTK hybridization intensity over baseline: FIG. 2A
# Source text: Hybridization strength is given a baseline of 1 and increased intensity is expressed in as a multiple of the baseline, i.e., 2-fold, 3-fold, 4-fold etc.
# Column 1 lists the presumed functional class of the gene.
# Columns are similar to Table 8.
# [10] = ethanol administration; cited from earlier work
# [11] = 50, 100, 150 mM ethanol, FIG. 3B
smiles,measurement,setting,value
Clc1cccc(Cl)c1N=C1NCCN1 [clonidine],ethanol withdrawal syndrome,[1],strongly reduce ethanol withdrawal syndrome
"CCCC(=O)Nc1ncnc2c1ncn2[C@@H]1O[C@@H]2COP(=O)(O)O[C@H]2[C@H]1OC(=O)CCC [db-cAMP, dibutyryl-cyclic AMP]",time after treatment at which effects were significant,[2],≤ 24 h
CCO [ethanol],"E100, change in expression of ARHGDIB (L20688)",[3]; 100 mM ethanol,−0.7
same,"E100, change in expression of CPE (X51405)",[3]; 100 mM ethanol,1.2
same,"E100, change in expression of DBH (X13255)",[3]; 100 mM ethanol,5.4
same,"E100, change in expression of DLK1 (T49117)",[3]; 100 mM ethanol,2.9
same,"E100, change in expression of DUSP4 (U21108)",[3]; 100 mM ethanol,0.9
same,"E100, change in expression of E2-28.4 (EST) (R01227)",[3]; 100 mM ethanol,1
same,"E100, change in expression of EGFR (H02836)",[3]; 100 mM ethanol,1
same,"E100, change in expression of EST H08637 (NF1)",[3]; 100 mM ethanol,0.9
same,"E100, change in expression of EST R47985 (Acrosin)",[3]; 100 mM ethanol,−1.3
same,"E100, change in expression of EST R60751 (IEP2)",[3]; 100 mM ethanol,−0.8
same,"E100, change in expression of EST R73461 (TCRbeta)",[3]; 100 mM ethanol,−3.7
same,"E100, change in expression of EST T94087 (JNK2)",[3]; 100 mM ethanol,1
same,"E100, change in expression of FKHL1 (R60332)",[3]; 100 mM ethanol,−0.9
same,"E100, change in expression of GCH1 (U19523)",[3]; 100 mM ethanol,1.6
same,"E100, change in expression of GLRX (X76648)",[3]; 100 mM ethanol,1.4
same,"E100, change in expression of GPI-H (L19783)",[3]; 100 mM ethanol,−0.6
same,"E100, change in expression of GSTM4 (M99422)",[3]; 100 mM ethanol,0.9
same,"E100, change in expression of HIRH (H14506)",[3]; 100 mM ethanol,−1
same,"E100, change in expression of IL7 (J04156)",[3]; 100 mM ethanol,−0.7
same,"E100, change in expression of KRT18 (T53412)",[3]; 100 mM ethanol,−2.3
same,"E100, change in expression of LUM (U21128)",[3]; 100 mM ethanol,1.6
same,"E100, change in expression of MCP1 (M26683)",[3]; 100 mM ethanol,−1.9
same,"E100, change in expression of MGP (H52207)",[3]; 100 mM ethanol,−0.7
same,"E100, change in expression of NAIP (U19251)",[3]; 100 mM ethanol,0.9
same,"E100, change in expression of NEF3 (Y00067)",[3]; 100 mM ethanol,1.4
same,"E100, change in expression of NFIB2/3 (H91713)",[3]; 100 mM ethanol,2.1
same,"E100, change in expression of NP (T47964)",[3]; 100 mM ethanol,0.5
same,"E100, change in expression of NPTX2 (U29195)",[3]; 100 mM ethanol,0.9
same,"E100, change in expression of NSMAF (R41765)",[3]; 100 mM ethanol,1.1
same,"E100, change in expression of PGY1 (M29447)",[3]; 100 mM ethanol,2.3
same,"E100, change in expression of PMSCL2 (R40490)",[3]; 100 mM ethanol,0.7
same,"E100, change in expression of PRHX (X67235)",[3]; 100 mM ethanol,1
same,"E100, change in expression of RAC2 (H42477)",[3]; 100 mM ethanol,−0.9
same,"E100, change in expression of RPL14 (R82938)",[3]; 100 mM ethanol,−0.5
same,"E100, change in expression of SLC6A2(NET) (M65105)",[3]; 100 mM ethanol,2.6
same,"E100, change in expression of SOX9 (Z46629)",[3]; 100 mM ethanol,−1.2
same,"E100, change in expression of SPARC (T54767)",[3]; 100 mM ethanol,−1.3
same,"E100, change in expression of SSH3BP1 (R34245)",[3]; 100 mM ethanol,0.7
same,"E100, change in expression of TMPO (U09086)",[3]; 100 mM ethanol,1
same,"E100, change in expression of TP53 (X54156)",[3]; 100 mM ethanol,−1.1
same,"E100, change in expression of ZNF42 (R83364)",[3]; 100 mM ethanol,−1.9
same,"DBH mRNA levels, dose dependence",[3]; [11],changed in a dose-dependent manner
same,"DLK, NET and MCP-1 gene expression, dose dependence",[3]; [11],showed a dose-response
same,expression of gene encoding α7 subunit of the neuronal acetylcholine receptor (nAChRα7),"[3]; 100 mM ethanol, FIG. 3A",downregulated
same,NE levels in the media,[4],23.554+/−5.218 ng/mg of protein
same,DBH protein expression,"[5]; 150 mM ethanol for 72 h, FIG. 4B",enhancement in DBH protein expression
same,duration of increase in DBH protein levels,"[5]; continued presence of ethanol, data not shown",sustained up to 7 days treatment
same,MCP-1 peptide release in the culture media,[6],decrease in peptide release
same,DBH mRNA levels in the brain,"[7]; 6 or 24 h after single dose 4 g/kg i.p., data not shown",No difference in expression
same,DBH mRNA levels in the adrenal,"[7]; 6 h after single dose 4 g/kg i.p., data not shown",No difference in expression
same,DBH mRNA levels in the adrenal,"[7]; 24 h after single dose 4 g/kg i.p., FIG. 5",significant increase
same,"DBH, DLK and NET mRNA levels","[8]; 3 days treatment, FIG. 4A",increase
same,MCP-1 transcript levels,"[8]; 3 days treatment, FIG. 4A",decrease
same,time after addition at which changes in expression were detected,"[8]; DBH, DLK, NET, MCP-1, data not shown",≤ 24 h
same,Co-Activ increase in hybridization,[9],4 fold
same,MAP4 increase in hybridization,[9],3 fold
same,Na/H Anti increase in hybridization,[9],~6 fold
same,ZNFP increase in hybridization,[9],7.5 fold
same,DBH hybridization intensity over baseline,[9]; 50 mM ethanol,3 fold
same,DLK hybridization intensity over baseline,"[9]; 50 mM ethanol, baseline = 1",just over the baseline
same,GABA-β3 hybridization intensity over baseline,"[9]; 50 mM ethanol, baseline = 1",just over the baseline
same,NPTX2 hybridization intensity over baseline,"[9]; 50 mM ethanol, baseline = 1",just over the baseline
same,PDGFR hybridization intensity over baseline,"[9]; 50 mM ethanol, baseline = 1",just over the baseline
same,PTK hybridization intensity over baseline,"[9]; 50 mM ethanol, baseline = 1",just over the baseline
same,DBH hybridization intensity over baseline,[9]; 100 mM ethanol,5 fold
same,DLK hybridization intensity over baseline,[9]; 100 mM ethanol,3 fold
same,GABA-β3 hybridization intensity over baseline,[9]; 100 mM ethanol,around 2 fold
same,NPTX2 hybridization intensity over baseline,[9]; 100 mM ethanol,around 2 fold
same,PDGFR hybridization intensity over baseline,[9]; 100 mM ethanol,3 fold
same,PTK hybridization intensity over baseline,[9]; 100 mM ethanol,3 fold
same,DBH hybridization intensity over baseline,[9]; 150 mM ethanol,~9 fold
same,DLK hybridization intensity over baseline,[9]; 150 mM ethanol,~7 fold
same,GABA-β3 hybridization intensity over baseline,[9]; 150 mM ethanol,2 fold
same,NPTX2 hybridization intensity over baseline,[9]; 150 mM ethanol,2 fold
same,PDGFR hybridization intensity over baseline,[9]; 150 mM ethanol,5 fold
same,PTK hybridization intensity over baseline,[9]; 150 mM ethanol,2 fold
same,plasma norepinephrine levels,[10],dose-dependent elevation
"CO [methanol, reference compound]",Co-Activ increase in hybridization,[9],1.5 fold
same,MAP4 increase in hybridization,[9],> 2 fold
same,Na/H Anti increase in hybridization,[9],1.5 fold
same,ZNFP increase in hybridization,[9],1.5 fold
"CCCO [propanol, reference compound]",Co-Activ increase in hybridization,[9],> 6.5 fold
same,MAP4 increase in hybridization,[9],4 fold
same,Na/H Anti increase in hybridization,[9],6.5 fold
same,ZNFP increase in hybridization,[9],> 6 fold
